{"source": "patent US20040214848A1", "about": "“Inhibitors of ABC drug transporters in microbial cells” (priority 2001, published 2004)", "key": {"human PGP [1]": {"target": "T1, human PGP (Homo sapiens, UniProt P08183)", "T1 sequence (P08183 whole entry)": "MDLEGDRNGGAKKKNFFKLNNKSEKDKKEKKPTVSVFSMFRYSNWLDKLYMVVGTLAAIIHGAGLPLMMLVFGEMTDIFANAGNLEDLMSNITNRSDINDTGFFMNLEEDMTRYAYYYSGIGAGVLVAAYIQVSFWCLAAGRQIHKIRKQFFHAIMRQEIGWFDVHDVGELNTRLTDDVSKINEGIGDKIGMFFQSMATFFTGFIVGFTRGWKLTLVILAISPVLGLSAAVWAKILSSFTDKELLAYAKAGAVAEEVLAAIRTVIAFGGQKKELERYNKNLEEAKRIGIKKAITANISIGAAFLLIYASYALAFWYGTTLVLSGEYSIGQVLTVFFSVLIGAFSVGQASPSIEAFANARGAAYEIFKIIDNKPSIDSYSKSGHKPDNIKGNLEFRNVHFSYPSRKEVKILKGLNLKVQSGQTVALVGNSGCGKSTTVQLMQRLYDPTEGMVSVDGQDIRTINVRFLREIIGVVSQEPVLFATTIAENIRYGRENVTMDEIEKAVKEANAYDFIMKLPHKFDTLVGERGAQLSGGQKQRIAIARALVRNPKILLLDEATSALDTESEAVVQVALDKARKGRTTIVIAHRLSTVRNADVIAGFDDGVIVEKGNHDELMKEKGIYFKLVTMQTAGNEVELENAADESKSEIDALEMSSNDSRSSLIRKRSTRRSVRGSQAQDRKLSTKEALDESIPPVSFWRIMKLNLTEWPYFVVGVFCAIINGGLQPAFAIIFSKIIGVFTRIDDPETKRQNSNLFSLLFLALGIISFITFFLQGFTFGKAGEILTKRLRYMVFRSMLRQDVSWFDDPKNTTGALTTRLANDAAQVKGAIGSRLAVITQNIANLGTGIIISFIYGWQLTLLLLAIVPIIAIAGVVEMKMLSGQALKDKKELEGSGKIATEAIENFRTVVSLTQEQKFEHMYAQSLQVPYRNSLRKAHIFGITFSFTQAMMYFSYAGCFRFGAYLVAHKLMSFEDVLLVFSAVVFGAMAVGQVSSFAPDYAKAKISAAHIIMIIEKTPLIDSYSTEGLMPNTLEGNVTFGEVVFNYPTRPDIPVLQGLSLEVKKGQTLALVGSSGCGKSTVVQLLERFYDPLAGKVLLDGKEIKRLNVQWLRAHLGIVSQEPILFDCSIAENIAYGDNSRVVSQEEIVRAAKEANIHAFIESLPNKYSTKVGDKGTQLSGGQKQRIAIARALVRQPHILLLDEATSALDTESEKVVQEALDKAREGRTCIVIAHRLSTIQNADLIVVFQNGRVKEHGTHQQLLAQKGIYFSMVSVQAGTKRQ", "assay": "Inhibition of PGP-mediated [3H]-digoxin transport in human PGP-expressing LLC-PK1 (15B-J) cell monolayers", "settings": "for Concentrations at which inhibitory behavior was exhibited: pH 7.2"}, "human PGP [2]": {"target": "T1, human PGP"}, "[3]": {"target": "human PGP membranes (PGP-ATPase) (Homo sapiens, UniProt P08183)", "sequence (P08183 whole entry)": "as above", "protocol": "The DMSO concentration (1.0%) was constant for all conditions within the experiment.\nThe test substances were incubated in the PGP membranes and supplemented with MgATP, with and without sodium orthovanadate present. Orthovanadate inhibits PGP by trapping MgADP in the nucleotide binding site. Thus, the ATPase activity measured in the presence of orthovanadate represents non-PGP ATPase activity and was subtracted from the activity generated without orthovanadate to yield vanadate-sensitive ATPase activity.\n(§1) ATPase assays were conducted in 96-well microtiter plates. A 0.06 mL reaction mixture containing 40 μg PGP membranes, test substance, and 4 mM MgATP, in buffer containing 50 mM Tris-MES, 2 mM EGTA, 50 mM KCl, 2 mM dithiothreitol, and 5 mM sodium azide, plus organic solvent was incubated at 37° C. for 20 minutes. […] Identical reaction mixtures containing 100 μM sodium orthovanadate were assayed in parallel. The reactions were stopped by the addition of 30 μl of 10% SDS+Antifoam A. The incubations were followed with addition of 200 μl of 35 mM Ammonium Molybdate in 15 mM Zinc Acetate:10% Ascorbic Acid (1:4) and incubated for an additional 20 minutes at 37° C. Additionally, 0.06 mL aliquots of potassium phosphate standards prepared in the buffer described above, were incubated in the plates containing the test and control substances, with SDS and detection reagent added. The liberation of inorganic phosphate was detected by its absorbance at 800 nm and quantitated by comparing the absorbance to a phosphate standard curve. The concentration dependence of the PGP was analyzed for evidence of saturation of PGP-ATPase activity, and apparent kinetic parameters were calculated by non-linear regression.\nas §1, with “plates.” for “plates. A 0.06 mL reaction mixture containing 40 μg PGP membranes, test substance, and 4 mM MgATP, in buffer containing 50 mM Tris-MES, 2 mM EGTA, 50 mM KCl, 2 mM dithiothreitol, and 5 mM sodium azide, plus organic solvent was incubated at 37° C. for 20 minutes.”, “PGP-associated ATPase” for “PGP-ATPase”\nas §1, with “The effect of tobramycin on PGP-associated ATPase activity was also assayed. The tobramycin was incubated in human PGP membranes (BD Biosciences, Franklin Lakes, N.J., Gentest Cat. K228) and supplemented with MGATP, with and without sodium orthovanadate present. ATPase” for “ATPase”, “tobramycin,” for “test substance,”, “solvent (1% DMSO)” for “solvent”, “curve.” for “curve. The concentration dependence of the PGP was analyzed for evidence of saturation of PGP-ATPase activity, and apparent kinetic parameters were calculated by non-linear regression.”"}, "[4]": {"test_system": "CLA (control) Monolayer, LLC-PK1 cells", "settings": "pig, 120 min, 10 µM, pH 7.2"}, "[5]": {"test_system": "Plasmodium falciparum strains", "settings": "more rapidly; cited from earlier work"}}, "note": "Where two headings read alike, the source gives them in different places."}
{"smiles": "Oc1ccc2c3c1O[C@H]1[C@H](O)CC[C@@]4(O)[C@@H](C2)N(CC2CC2)CC[C@]314", "note": "[6-β-Naltrexol, 6-β-naltrexol]", "values": [{"measurement": "Inhibition of digoxin efflux, mean", "setting": "human PGP [1]; concentration range of 0.0001 to 30 μM", "result": "8.5 +/−7.1%"}, {"measurement": "Inhibition of PGP-mediated digoxin transport (result in words)", "setting": "human PGP [1]; ketoconazole at 25 μM, test substance over the concentration range tested", "result": "inhibitor of PGP-mediated digoxin transport"}, {"measurement": "Concentration dependence of inhibition of digoxin transport (result in words)", "setting": "human PGP [2]", "result": "did not appear to be concentration-dependent"}]}
{"smiles": "CC[C@H]1OC(=O)[C@H](C)[C@@H](O[C@H]2C[C@@](C)(OC)[C@@H](O)[C@H](C)O2)[C@H](C)[C@@H](O[C@@H]2O[C@H](C)C[C@H](N(C)C)[C@H]2O)[C@](C)(O)C[C@@H](C)C(=O)[C@H](C)[C@@H](O)[C@]1(C)O", "note": "[Erythromycin, erythromycin]", "values": [{"measurement": "Effect on PGP-associated ATPase activity (result in words)", "setting": "[3]", "result": "stimulate PGP-associated ATPase activity"}, {"measurement": "ATPase Activity", "setting": "[3]; human, 20 min, 0.1 μM", "result": 1.1, "unit": "nmol/mg/min"}, {"measurement": "ATPase Activity", "setting": "[3]; human, 20 min, 0.2 µM", "result": 2.0, "unit": "nmol/mg/min"}, {"measurement": "ATPase Activity", "setting": "[3]; human, 20 min, 0.4 µM", "result": 0.8, "unit": "nmol/mg/min"}, {"measurement": "ATPase Activity", "setting": "[3]; human, 20 min, 0.8 µM", "result": 0.1, "unit": "nmol/mg/min"}, {"measurement": "ATPase Activity", "setting": "[3]; human, 20 min, 3.13 µM", "result": 0.5, "unit": "nmol/mg/min"}, {"measurement": "ATPase Activity", "setting": "[3]; human, 20 min, 6.25 µM", "result": 0.6, "unit": "nmol/mg/min"}, {"measurement": "ATPase Activity", "setting": "[3]; human, 20 min, 12.5 µM", "result": 2.8, "unit": "nmol/mg/min"}, {"measurement": "ATPase Activity", "setting": "[3]; human, 20 min, 25 µM", "result": 8.2, "unit": "nmol/mg/min"}, {"measurement": "ATPase Activity", "setting": "[3]; human, 20 min, 50 µM", "result": 14.0, "unit": "nmol/mg/min"}, {"measurement": "ATPase Activity", "setting": "[3]; human, 20 min, 100 μM", "result": 15.6, "unit": "nmol/mg/min"}, {"measurement": "pmoles in Receiver", "setting": "[4]", "result": 6.3, "unit": "pmol"}]}
{"smiles": "C=C1CC[C@@]2(O)[C@H]3Cc4ccc(O)c5c4[C@@]2(CCN3CC2CC2)[C@H]1O5", "note": "[Nalmefene, nalmefene]", "values": [{"measurement": "Effect on PGP-associated ATPase activity (result in words)", "setting": "[3]; semi-quantitative assay", "result": "not to limit the ATPase activity"}, {"measurement": "Concentration dependence of inhibition of digoxin transport (result in words)", "setting": "human PGP [1]", "result": "increasingly inhibited in response to increasing concentration"}, {"measurement": "Efflux ratio B→A/A→B, Hi Affinity/Low Cap", "setting": "human PGP [1]; human, LLC-PK1, pH 7.2", "result": "4.2 (3.0)"}, {"measurement": "Efflux ratio B→A/A→B, Low Affinity/Hi Cap", "setting": "human PGP [1]; human, LLC-PK1, pH 7.2", "result": "2.6 (1.9)"}, {"measurement": "Concentrations at which inhibitory behavior was exhibited", "setting": "human PGP [1]; human", "result": "100 to 100000", "unit": "nM"}]}
{"smiles": "C=CCN1CC[C@]23c4c5ccc(O)c4O[C@H]2C(=O)CC[C@@]3(O)[C@H]1C5", "note": "[Naloxone, naloxone]", "values": [{"measurement": "Effect on PGP-associated ATPase activity (result in words)", "setting": "[3]; semi-quantitative assay", "result": "not to limit the ATPase activity"}, {"measurement": "Concentration dependence of inhibition of digoxin transport (result in words)", "setting": "human PGP [1]", "result": "not concentration-dependent"}, {"measurement": "Concentrations at which inhibitory behavior was exhibited", "setting": "human PGP [1]; human", "result": "100 to 100000", "unit": "nM"}]}
{"smiles": "O=C1CC[C@@]2(O)[C@H]3Cc4ccc(O)c5c4[C@@]2(CCN3CC2CC2)[C@H]1O5", "note": "[Naltrexone, naltrexone]", "values": [{"measurement": "ATPase Activity", "setting": "[3]; 0.003 μM test substance", "result": -0.3, "unit": "nmol/mg/min"}, {"measurement": "ATPase Activity", "setting": "[3]; 0.01 μM test substance", "result": 0.0, "unit": "nmol/mg/min"}, {"measurement": "ATPase Activity", "setting": "[3]; 0.03 μM test substance", "result": -1.6, "unit": "nmol/mg/min"}, {"measurement": "ATPase Activity", "setting": "[3]; 0.1 μM test substance", "result": -0.7, "unit": "nmol/mg/min"}, {"measurement": "ATPase Activity", "setting": "[3]; 0.3 μM test substance", "result": -1.4, "unit": "nmol/mg/min"}, {"measurement": "ATPase Activity", "setting": "[3]; 1.0 μM test substance", "result": -0.8, "unit": "nmol/mg/min"}, {"measurement": "ATPase Activity", "setting": "[3]; 3.0 μM test substance", "result": 2.1, "unit": "nmol/mg/min"}, {"measurement": "ATPase Activity", "setting": "[3]; 10 μM test substance", "result": 2.0, "unit": "nmol/mg/min"}, {"measurement": "ATPase Activity", "setting": "[3]; 30 μM test substance", "result": -2.0, "unit": "nmol/mg/min"}, {"measurement": "ATPase Activity", "setting": "[3]; 100 μM test substance", "result": 4.6, "unit": "nmol/mg/min"}]}
{"smiles": "NC[C@H]1O[C@H](O[C@H]2[C@H](O)[C@@H](O[C@H]3O[C@H](CO)[C@@H](O)[C@H](N)[C@H]3O)[C@H](N)C[C@@H]2N)[C@H](N)C[C@@H]1O", "note": "[Tobramycin, tobramycin]", "values": [{"measurement": "Effect on PGP-associated ATPase activity (result in words)", "setting": "[3]", "result": "stimulate PGP-associated ATPase activity"}, {"measurement": "ATPase Activity", "setting": "[3]; human, 20 min, 0.1 μM", "result": -1.6, "unit": "nmol/mg/min"}, {"measurement": "ATPase Activity", "setting": "[3]; human, 20 min, 0.2 µM", "result": -2.6, "unit": "nmol/mg/min"}, {"measurement": "ATPase Activity", "setting": "[3]; human, 20 min, 0.4 µM", "result": -2.6, "unit": "nmol/mg/min"}, {"measurement": "ATPase Activity", "setting": "[3]; human, 20 min, 0.8 µM", "result": -3.3, "unit": "nmol/mg/min"}, {"measurement": "ATPase Activity", "setting": "[3]; human, 20 min, 3.13 µM", "result": -2.6, "unit": "nmol/mg/min"}, {"measurement": "ATPase Activity", "setting": "[3]; human, 20 min, 6.25 µM", "result": -1.4, "unit": "nmol/mg/min"}, {"measurement": "ATPase Activity", "setting": "[3]; human, 20 min, 12.5 µM", "result": -1.0, "unit": "nmol/mg/min"}, {"measurement": "ATPase Activity", "setting": "[3]; human, 20 min, 25 µM", "result": 0.2, "unit": "nmol/mg/min"}, {"measurement": "ATPase Activity", "setting": "[3]; human, 20 min, 50 µM", "result": 0.3, "unit": "nmol/mg/min"}, {"measurement": "ATPase Activity", "setting": "[3]; human, 20 min, 100 μM", "result": 1.5, "unit": "nmol/mg/min"}]}
{"smiles": "CCN(CC)CCCC(C)Nc1ccnc2cc(Cl)ccc12", "note": "(stereo not drawn) [chloroquine]", "values": [{"measurement": "Efflux of the drug, chloroquine-resistant versus chloroquine-sensitive strains", "setting": "[5]", "result": "40-50 times"}]}
